Assay results reported in the NIST ThermoML archive (doi:10.1021/acs.jced.8b00715).
Numbers after ± are expanded uncertainties. Values belong to the compound of their own block, whether it stands above or below them.

Columns and labels:
[1] = wn = mass fraction of the nth substance listed; conditions: 298.15 K, 100 kPa, Liquid, Vibrating tube method
[2] = refractive index (Na D-line) (dimensionless); wn = mass fraction of the nth substance listed; conditions: 298.15 K, 100 kPa, Liquid, Standard Abbe refractometry

mass density ([1]; w1 = 0.219): 1204.85 ± 14 kg/m3
refractive index ([2]; w1 = 0.219): 1.3626 ± 0.002
Structure (SMILES): O=S(=O)([O-])[O-].[Na+].[Na+] [sodium sulfate] + O

mass density ([1]; w1 = 0.2645): 1198.1 ± 5.6 kg/m3
refractive index ([2]; w1 = 0.2645): 1.3796 ± 0.0015
Structure (SMILES): [Cl-].[Na+] [sodium chloride] + O

mass density ([1]; w1 = 0.2259): 1267.8 ± 1.1 kg/m3
refractive index ([2]; w1 = 0.2259): 1.3872 ± 0.0007
Structure (SMILES): O=B[O-].[Na+] [sodium metaborate] + O
